Some test systems named below: E. faecium; P. aeruginosa; A. baumanii; E.coli; MRSA; K. pneumoniae.
Holding throughout (format): cell-based
The test system of a further assay is S. nterica. Description: Minimal inhibitory concentration for bacteriocidal activity. The conditions noted are these: MIC; strains in Supp. Info.

Read-outs that look alike come from different tables or passages of the source. Where a SMILES comes first, the peptide text is derived from it. Bounds are passed on as bounds.

As to `N=C(N)NCCC[C@H](NC(=O)[C@H](CS)NC(=O)[C@H](Cc1ccc(O)cc1)NC(=O)[C@H](Cc1c[nH]c2ccccc12)NC(=O)[C@H](CCCNC(=N)N)NC(=O)[C@@H](N)Cc1c[nH]c2ccccc12)C(N)=O` [Complex 1, WRWYCR-NH2] (H-WRWYCR-NH2), in the assay with E. faecium, the “Minimal inhibitory concentration for bacteriocidal activity, E. faecium” value turned out to be 8 µM. Also, the “Minimal inhibitory concentration for bacteriocidal activity, S. nterica” value with S. nterica stood at 8 µM. The “Minimal inhibitory concentration for bacteriocidal activity, P. aeruginosa” value in the assay with P. aeruginosa is 33 µM. The “Minimal inhibitory concentration for bacteriocidal activity, A. baumanii” value with A. baumanii is 132 µM. Also, the “Minimal inhibitory concentration for bacteriocidal activity, E.coli” value with E.coli worked out at 17 µM. In addition, the “Minimal inhibitory concentration for bacteriocidal activity, MRSA” value with MRSA was determined as 66 µM. In the assay with K. pneumoniae, the “Minimal inhibitory concentration for bacteriocidal activity, K. pneumoniae” value was found to be 66 µM.
In the case of `NC[C@H]1O[C@H](O[C@H]2[C@H](O)[C@@H](O[C@H]3O[C@H](CO)[C@@H](O)[C@H](N)[C@H]3O)[C@H](N)C[C@@H]2N)[C@H](O)[C@@H](O)[C@@H]1O` [kanamycin], in the assay on E. faecium (MIC, strains in Supp. Info), the “Minimal inhibitory concentration for bacteriocidal activity, E. faecium” value was more than 264 µM. Moreover, the “Minimal inhibitory concentration for bacteriocidal activity, S. nterica” value with S. nterica is 1 µM. Moreover, in the assay on P. aeruginosa (MIC, strains in Supp. Info), the “Minimal inhibitory concentration for bacteriocidal activity, P. aeruginosa” value came to 33 µM. The “Minimal inhibitory concentration for bacteriocidal activity, A. baumanii” value in the assay with A. baumanii (MIC, strains in Supp. Info) was more than 264 µM. The “Minimal inhibitory concentration for bacteriocidal activity, E.coli” value in the assay on E.coli (MIC, strains in Supp. Info) was 8 µM. The “Minimal inhibitory concentration for bacteriocidal activity, MRSA” value in the assay on MRSA (MIC, strains in Supp. Info) is 264 µM. In addition, the “Minimal inhibitory concentration for bacteriocidal activity, K. pneumoniae” value in the assay with K. pneumoniae (MIC, strains in Supp. Info) was 66 µM.

These data come from publication PMC3632407 (Chemical communications (Cambridge, England), 2013).
